Among the test systems are SN12C renal; HT29 colon; HCC-2998 colon; HOP-62 NSCLC; HCT-116 colon; NCI/ADR-RES ovarian; CCRF-CEM leukemia; SF-268 CNS; ACHN renal; SF-539 CNS; DLD-1 colon; OVCAR-5 ovarian; UO-31 renal; U251 CNS; SK-MEL-28 melanoma; COLO 205 colon; DU-145 prostate; EKVX NSCLC; HOP-92 NSCLC; IGROV1 ovarian.
Holding throughout (experiment): NCI tumour cell line growth inhibition, 48 h

SMILES strings stand for the structures.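 Five concentrations, 48 hours, 96-well plates. The concentration for full growth arrest is given as TGI.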

`CN(C)CC1(Cc2ccccc2)CCC(Cc2ccccc2)C1=O` (stereo not drawn): the TGI in the assay on SN12C renal is 23.9 µM; in the assay with HT29 colon, 28.6 µM; with HCC-2998 colon, 21.4 µM; with HOP-62 NSCLC, 33 µM; with HCT-116 colon, 26.7 µM; in the assay on NCI/ADR-RES ovarian, 40 µM. The TGI with CCRF-CEM leukemia came out at 12.5 µM; in the assay with SF-268 CNS, 22.6 µM; in the assay on ACHN renal, 29.7 µM; in the assay on SF-539 CNS it was 33.5 µM; in the assay on DLD-1 colon, 8.26 µM; in the assay on OVCAR-5 ovarian, 32.8 µM. Further, the TGI in the assay on UO-31 renal worked out at 30.7 µM; in the assay on U251 CNS, 31.8 µM; in the assay with SK-MEL-28 melanoma it was 26.6 µM; in the assay on COLO 205 colon, 19.4 µM; with DU-145 prostate, 28.7 µM; in the assay with EKVX NSCLC, 31.8 µM. The figures for the TGI with HOP-92 NSCLC and in the assay on IGROV1 ovarian were 40 µM and 24.1 µM, respectively.
With `COc1cc(C)c(C)c(OC(=O)c2c(C)c(C)c(OC)c(C)c2OC)c1C`, the TGI is more than 100 µM in the assay on SN12C renal; 23.5 µM in the assay with HT29 colon; 53.1 µM in the assay with HCC-2998 colon; more than 100 µM in the assay on HOP-62 NSCLC; 39 µM in the assay with HCT-116 colon; 62 µM in the assay with CCRF-CEM leukemia. Besides, the TGI with SF-268 CNS was 56.2 µM; in the assay on ACHN renal it was more than 100 µM; with SF-539 CNS, 38.6 µM; with DLD-1 colon it was more than 100 µM; in the assay on OVCAR-5 ovarian, 91.4 µM; in the assay with UO-31 renal it was more than 100 µM. Moreover, the TGI is 21 µM in the assay on U251 CNS; more than 100 µM in the assay with SK-MEL-28 melanoma; 15.7 µM in the assay with COLO 205 colon; 98.3 µM in the assay on EKVX NSCLC; 53.9 µM in the assay with HOP-92 NSCLC; more than 100 µM in the assay with IGROV1 ovarian.
`O=S(=O)(O)c1cc(N=Nc2cc(S(=O)(=O)O)c3cccnc3c2O)ccc1/C=C/c1ccc(N=Nc2cc(S(=O)(=O)O)c3cccnc3c2O)cc1S(=O)(=O)O`: the TGI in the assay with SN12C renal, in the assay with HT29 colon, in the assay on HCC-2998 colon, in the assay on HOP-62 NSCLC, in the assay on HCT-116 colon and with NCI/ADR-RES ovarian was more than 100 µM in each case. Also, the TGI in the assay with CCRF-CEM leukemia is 52.5 µM; in the assay on SF-268 CNS, more than 100 µM; with ACHN renal, more than 100 µM; in the assay on SF-539 CNS it was more than 100 µM; in the assay on DLD-1 colon, more than 100 µM; with OVCAR-5 ovarian, more than 100 µM. The TGI in the assay on UO-31 renal, in the assay on U251 CNS, in the assay with SK-MEL-28 melanoma, in the assay on COLO 205 colon, in the assay with DU-145 prostate and in the assay with EKVX NSCLC was more than 100 µM throughout. The TGI in the assay on HOP-92 NSCLC and in the assay with IGROV1 ovarian was more than 100 µM throughout.

These data come from PubChem BioAssay (NCI).
